Measured values reported in US20050158271A1, “Pharmaceutical applications of hydrotropic polymer micelles” (priority 2000, published 2005).
Values after ≈ are worked out from the molar mass of the structure shown.

Legend:
MDA231 = experiment: Antitumor cytotoxicity (ED50), MDA231; assay type: cell-based; conditions: MDA231 tumor cell line
Method: (§1) The antitumor cytotoxicities, as measured by ED50, of polymeric micelles on various cell lines were measured as shown in Table 7. […] Free paclitaxel and doxorubicin in ethanol were used as positive controls. The ED50 values of hydrotropic micelles are much lower than PLA-PEG and PPA-PEG micelles.

MCF-7 = experiment: Antitumor cytotoxicity (ED50), MCF-7; assay type: cell-based; conditions: MCF-7 tumor cell line
Method: as §1

SKOV-3 = experiment: Antitumor cytotoxicity (ED50), SKOV-3; assay type: cell-based; conditions: SKOV-3 tumor cell line
Method: as §1

HT-29 = experiment: Antitumor cytotoxicity (ED50), HT-29; assay type: cell-based; conditions: HT-29 tumor cell line
Method: as §1

[1] = Aqueous solubility of paclitaxel (intrinsic, clinical vehicle, hydrotropic agents)
Text: The molecular structures of these hydrotropic agents are shown below.

[2] = 50:50 mixture of Cremophore EL and dehydrated ethanol, diluted in isotonic saline; cited from earlier work

SMILES | ED50 MDA231 (MDA231) [µg/mL] | ED50 MCF-7 (MCF-7) [µg/mL] | ED50 SKOV-3 (SKOV-3) [µg/mL] | ED50 HT-29 (HT-29) [µg/mL] | increase in aqueous solubility over the intrinsic solubility [1] | paclitaxel solubility in formulation [2] [µg/mL] | hydrotropic property for paclitaxel (ability to increase aqueous paclitaxel solubility) ([1]; hydrotrope screening, in words)
COc1cccc2c1C(=O)c1c(O)c3c(c(O)c1C2=O)C[C@@](O)(C(=O)CO)C[C@@H]3O[C@H]1C[C@H](N)[C@H](O)[C@H](C)O1 [Doxorubicin] | 0.050 (≈ 0.092 µM) | 0.773 (≈ 1.42 µM) | 0.611 (≈ 1.12 µM) | 0.044 (≈ 0.081 µM) | – | – | –
CC(=O)O[C@H]1C(=O)[C@@]2(C)[C@H]([C@H](OC(=O)c3ccccc3)[C@]3(O)C[C@H](OC(=O)[C@H](O)[C@@H](NC(=O)c4ccccc4)c4ccccc4)C(C)=C1C3(C)C)[C@]1(OC(C)=O)CO[C@@H]1C[C@@H]2O [Paclitaxel, paclitaxel] | 0.033 (≈ 0.0386 µM) | 0.043 (≈ 0.0504 µM) | 0.006 (≈ 0.00703 µM) | 0.003 (≈ 0.00351 µM) | 5˜6 orders of magnitude | ≤ 1200 | –
O=C([O-])c1ccccc1O.[Na+] [sodium salicylate, Sodium salicylate] | – | – | – | – | – | – | excellent hydrotropes for paclitaxel
